Data as given in paper PMC3700404 (Chemistry & biology, 2008).

What was measured:
[1] = biological target: hCB1 K3.28(192)A mutant receptor (Homo sapiens, UniProt P21554, K192A); assay: Competitive binding assay, hCB1 K3.28; settings: radioligand [3H]-CP55940
[2] = biological target: T1, hCB2 C6.47(257)A mutant receptor (Homo sapiens, UniProt P34972, C257A); assay: Affinity-labeling assay, hCB2 C6.47; settings: 9 nM AM-841, 1 hr, 30°C, washed
[3] = biological target: T2, WT hCB2 receptor (Homo sapiens, UniProt P34972); assay: Affinity-labeling assay
[4] = biological target: hCB2 C7.42(288)S mutant receptor (Homo sapiens, UniProt P34972, C288S); assay: Affinity-labeling assay, hCB2 C7.42; settings: 9 nM AM-841, 1 hr, 30°C, washed
[5] = biological target: T1, hCB2 C6.47(257)A mutant receptor; assay: Competitive binding assay, hCB2 C6.47; settings: for enhancement of ability to displace CP55940 versus WT hCB2 / increase in affinity over WT hCB2 receptor: C6.47(257)A vs WT; for Ki: mean (95% CI)
[6] = biological target: hCB2 K3.28(109)A mutant receptor (Homo sapiens, UniProt P34972, K109A); assay: Competitive binding assay, hCB2 K3.28; settings: radioligand [3H]-CP55940; mean (95% CI)
[7] = biological target: T2, WT hCB2 receptor; assay: Inhibition of forskolin-stimulated cAMP accumulation, WT hCB2 cells; type: cell-based; settings: read-out: IC50, inhibition of forskolin-stimulated cAMP accumulation; HEK293 cells, 5 μM forskolin, 5 min; mean (95% CI)
[8] = test system: C6.47(257)K, C6.47(257)I, C6.47(257)L, C6.47(257)D, and C6.47(257)Y hCB2 receptor mutants; assay: Competitive binding assay, further C6.47; design: species or system human; settings: radioligand [3H]-CP55940; data not shown
[9] = biological target: T3, hCB2 C6.47(257)S mutant receptor (Homo sapiens, UniProt P34972, C257S); assay: Inhibition of forskolin-stimulated cAMP accumulation, hCB2 C6.47; type: cell-based; settings: read-out: IC50, inhibition of forskolin-stimulated cAMP accumulation; HEK293 cells, 5 μM forskolin, 5 min; mean (95% CI)
[10] = biological target: T3, hCB2 C6.47(257)S mutant receptor; assay: Affinity-labeling assay, hCB2 C6.47; settings: 9 nM AM-841, 1 hr, 30°C, washed
[11] = biological target: T3, hCB2 C6.47(257)S mutant receptor; assay: Competitive binding assay, hCB2 C6.47; settings: for Ki: mean (95% CI); for increase in affinity over WT hCB2 receptor: C6.47(257)S vs WT
[12] = biological target: T1, hCB2 C6.47(257)A mutant receptor; assay: Inhibition of forskolin-stimulated cAMP accumulation, hCB2 C6.47; type: cell-based; settings: read-out: IC50, inhibition of forskolin-stimulated cAMP accumulation; HEK293 cells, 5 μM forskolin, 5 min; mean (95% CI)
[13] = biological target: hCB2 C7.38(284)S mutant receptor (Homo sapiens, UniProt P34972, C284S); assay: Affinity-labeling assay, hCB2 C7.38; settings: 9 nM AM-841, 1 hr, 30°C, washed
[14] = test system: CB2 receptor S7.39A mutant; settings: ref Rhee (2002); cited from earlier work
[15] = test system: C6.47(257)K, C6.47(257)I, C6.47(257)L, C6.47(257)D or C6.47(257)Y mutant hCB2 receptors; assay: Saturation-binding assay, further C6.47; design: species or system human; settings: data not shown

T2 sequence (P34972 whole entry): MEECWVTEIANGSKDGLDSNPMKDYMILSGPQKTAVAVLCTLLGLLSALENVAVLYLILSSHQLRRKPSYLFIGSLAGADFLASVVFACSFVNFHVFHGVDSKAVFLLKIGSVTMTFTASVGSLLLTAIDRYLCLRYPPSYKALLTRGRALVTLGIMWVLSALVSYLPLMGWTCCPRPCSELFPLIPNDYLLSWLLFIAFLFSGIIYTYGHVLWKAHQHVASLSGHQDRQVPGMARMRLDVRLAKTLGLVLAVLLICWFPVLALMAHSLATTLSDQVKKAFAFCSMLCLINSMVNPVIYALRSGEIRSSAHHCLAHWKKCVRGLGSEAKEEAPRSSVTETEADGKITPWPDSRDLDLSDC
Sequence of hCB1 K3.28(192)A mutant receptor (P21554 whole entry K192A): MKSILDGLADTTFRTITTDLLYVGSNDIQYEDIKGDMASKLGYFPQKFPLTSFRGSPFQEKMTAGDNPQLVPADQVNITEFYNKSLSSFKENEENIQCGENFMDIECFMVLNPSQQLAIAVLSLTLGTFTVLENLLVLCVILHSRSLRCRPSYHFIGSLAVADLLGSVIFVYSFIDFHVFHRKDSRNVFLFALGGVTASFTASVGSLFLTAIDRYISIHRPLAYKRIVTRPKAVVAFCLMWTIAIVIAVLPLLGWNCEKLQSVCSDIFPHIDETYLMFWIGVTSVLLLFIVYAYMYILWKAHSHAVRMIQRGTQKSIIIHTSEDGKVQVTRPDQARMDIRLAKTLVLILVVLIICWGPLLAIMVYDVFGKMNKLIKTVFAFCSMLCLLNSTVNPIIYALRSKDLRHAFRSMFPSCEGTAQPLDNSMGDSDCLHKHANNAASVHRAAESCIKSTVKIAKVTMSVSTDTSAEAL
T1 sequence (P34972 whole entry C257A): as the sequence (P34972 whole entry) above, with C257A counted along it
T3 sequence (P34972 whole entry C257S): as the sequence (P34972 whole entry) above, with C257S counted along it
Sequence of hCB2 K3.28(109)A mutant receptor (P34972 whole entry K109A): as the sequence (P34972 whole entry) above, with K109A counted along it
Sequence of hCB2 C7.38(284)S mutant receptor (P34972 whole entry C284S): as the sequence (P34972 whole entry) above, with C284S counted along it
Sequence of hCB2 C7.42(288)S mutant receptor (P34972 whole entry C288S): as the sequence (P34972 whole entry) above, with C288S counted along it

| Compound | Ki [1] | enhancement of ability to displace CP55940 versus WT hCB2 ([5]; radioligand [3H]-CP55940) | Ki ([5]; radioligand [3H]-CP55940) [nM] | increase in affinity over WT hCB2 receptor ([5]; radioligand [3H]-WIN55212-2) | Ki ([5]; radioligand [3H]-WIN55212-2) [nM] | Ki [6] [nM] | IC50 [7] [nM] | IC50 [9] [nM] | Ki ([11]; radioligand [3H]-CP55940) [nM] | increase in affinity over WT hCB2 receptor ([11]; radioligand [3H]-WIN55212-2) | Ki ([11]; radioligand [3H]-WIN55212-2) [nM] | IC50 [12] [nM] | further results |
| --- | --- | --- | --- | --- | --- | --- | --- | --- | --- | --- | --- | --- | --- |
| CC(C)(CCCCCCN=C=S)c1cc(O)c2c(c1)OC(C)(C)C1CCC(CO)CC21 (single isomer, unassigned; (-)) [AM-841, (−)-7′-isothiocyanato-11-hydroxy-1′,1′-di-methylheptylhexahydrocannabinol] | No Specific Binding | at least 2 fold | 0.71 | 3–6 fold | 0.7 | 2.31 | 0.079 | 2.88 | 1.68 | 3–6 fold | 1.5 | 6.01 | decrease in [3H]-CP55940 Bmax after AM-841 pretreatment [2]: no distinct decrease; Bmax for [3H]-CP55940 binding after preincubation ([3]; 9 nM AM-841, 1 hr, 30°C, then extensive wash-out, control membranes 1.05): 0.22 pmol/mg; decrease in [3H]-CP55940 binding after AM-841 pretreatment ([3]; 9 nM AM-841, 1 hr, 30°C, washed): ~ 80%; irreversible AM-841 binding ([3]; data not shown): ~ 80%; decrease in [3H]-CP55940 binding after AM-841 pretreatment [4]: ~ 80%; specific binding in competitive binding assay [8]: no specific binding; decrease in [3H]-CP55940 Bmax after AM-841 pretreatment [10]: no distinct decrease; decrease in [3H]-CP55940 binding after AM-841 pretreatment [13]: ~ 80% |
| CN1CCCCC1Cn1cc(C(=O)c2ccccc2I)c2ccccc21 (centres unmarked) [AM-2233] |  |  |  | over 11 fold | 0.5 |  |  |  |  | over 11 fold | 0.8 |  |  |
| CC(C)(CCCCCCBr)c1cc(O)c2c(c1)OC(C)(C)C1CCC(CO)CC21 (centres unmarked) [AM-4043] |  | at least 2 fold | 0.88 |  | 0.8 |  |  |  | 1.51 |  | 1.4 |  |  |
| CCCCCCC(C)(C)c1cc(O)c2c(c1)OC(C)(C)[C@@H]1CC[C@@H](CO)C[C@@H]21 [AM-4056] | No Specific Binding | at least 2 fold | 1.03 |  | 0.5 | 1.14 | 3.27 | 8.82 | 1.52 |  | 1.2 | 2.62 |  |
| CCCCCCC(C)(C)c1cc(O)c2c(c1)OC(C)(C)[C@@H]1CC[C@@H](CO)C[C@@H]21 [HU-243] |  |  |  |  |  |  |  |  |  |  |  |  | loss of affinity in S7.39A mutant [14]: over 10 fold |
| CCCCCCC(C)(C)c1ccc([C@@H]2C[C@H](O)CC[C@H]2CCCO)c(O)c1 [[^3H]-CP55940] |  |  |  |  |  |  |  |  |  |  |  |  | specific binding of radioligand [15]: no specific binding |
